Test results from paper PMC7300217, “Surfactin Like Broad Spectrum Antimicrobial Lipopeptide Co-produced With Sublancin From Bacillus subtilis Strain A52: Dual Reservoir of Bioactives” (Frontiers in Microbiology, 2020).
≈ marks a conversion by molar mass, not a printed value.

How the values were obtained:
[1] = test system: C. aurius 470126 (clinical isolate); assay: MIC, microtiter plate dilution assay; format: cell-based; conditions: 5 × 10^5 CFU/ml, 37°C, OD600 after 48 h, triplicate
Method: (§1) The antimicrobial activity was tested by well diffusion assay as mentioned earlier ([Singh et al., 2014]). Strain A52 was grown for 24 h in 500 ml of nutrient broth (NB, Hi-media, India) using 1000 ml flask and subsequently cells were removed by centrifugation (10,000 rpm for 15 min at 4°C). Supernatant was filtered through 0.22 μm filter (Millipore, United States) to obtain cell-free fermented broth (CFB) that was used for antimicrobial assay (50 μl) against various indicator strains and the activity was measured as diameter of inhibition zone. Test strains used were Staphylococcus aureus (MTCC 1430), Bacillus subtilis (MTCC 121), B. firmus (MTCC 488), B. licheniformis (MTCC 429), B. thuringiensis (MTCC 1953), Escherichia coli (MTCC 1610), Micrococcus luteus (MTCC 106), Steptococcus pyrogens (MTCC 1928), S. anginosus (MTCC 1929), S. oralis (MTCC 2696), S. mutans (MTCC 497), Candida albicans (MTCC 1637), C. albicans (MTCC 183), C. albicans (MTCC 227), C. tropicalis (MTCC 184), C. glabrata (MTCC 3019), C. haemulonii (MTCC 2766), and C. inconsplicue (MTCC 1074). The phytopathogenic fungi employed in this study were Alternaria brassicicola (MTCC 2102), Colletotrichum acutatum (MTCC 1037), and Fusarium moniliforme (MTCC 158). Clinical isolates of Candida were provided by National Culture Collection of Pathogenic Fungi (NCCPF), PGIMER, Chandigarh, India.
(§2) The minimum inhibitory concentration (MIC) of HPLC purified peptides was evaluated by using microtiter plate dilution assay. The peptide concentration was estimated using BCA protein assay (Thermo Fisher Scientific, United States) method as described by manufacturer. Actively growing test strains (5 × 10^5 CFU/ml) were inoculated in a 96-well plate with different concentrations of the peptides and plates were incubated for 24–48 h at 37°C (final volume in each well is 200 μl). OD was measured at 600 nm after 24 and 48 h for bacteria and yeast, respectively, using ELISA microplate reader (Thermo, United States). MIC against phytopathogenic fungi was determined using 96-well microtiter plate assay ([Kaur et al., 2016]). In 96-well microplates, 100 μl of fungal spore suspension (1 × 10^5 spores/ml) prepared in potato dextrose broth (PDB, Hi-media, India) was mixed with100 μl of fresh PDB containing different concentrations of lipopeptide. Control well contained 100 μl of fungal spore suspension and 100 μl of only medium. The microplates were incubated at 25°C and readings were recorded at 600 nm after 48 h. The lowest concentration showing no growth was considered as MIC. Each test was done in triplicate and optical density (OD600) of peptide treated wells were compared with uninoculated wells (blank medium control).

[2] = test system: C. glabrata MTCC 3019; assay: MIC, microtiter plate dilution assay; format: cell-based; conditions: Nakaseomyces glabratus, MTCC3019; 5 × 10^5 CFU/ml, 37°C, OD600 after 48 h, triplicate
Method: as §1, §2

[3] = test system: C. glabrata SKSS ID (clinical isolate); assay: MIC, microtiter plate dilution assay; format: cell-based; conditions: Nakaseomyces glabratus, 5 × 10^5 CFU/ml, 37°C, OD600 after 48 h, triplicate
Method: as §1, §2

[4] = test system: C. haemulonii 470125 (clinical isolate); assay: MIC, microtiter plate dilution assay; format: cell-based; conditions: Candidozyma haemuli, 5 × 10^5 CFU/ml, 37°C, OD600 after 48 h, triplicate
Method: as §1, §2

[5] = test system: C. haemulonii MTCC 2766; assay: MIC, microtiter plate dilution assay; format: cell-based; conditions: Candidozyma haemuli, MTCC2766; 5 × 10^5 CFU/ml, 37°C, OD600 after 48 h, triplicate
Method: as §1, §2

[6] = test system: C. inconsplicue MTCC 1074; assay: MIC, microtiter plate dilution assay; format: cell-based; conditions: 5 × 10^5 CFU/ml, 37°C, OD600 after 48 h, triplicate
Method: as §1, §2

[7] = test system: C. kefyr 410004 (clinical isolate); assay: MIC, microtiter plate dilution assay; format: cell-based; conditions: Kluyveromyces marxianus, 5 × 10^5 CFU/ml, 37°C, OD600 after 48 h, triplicate
Method: as §1, §2

[8] = test system: C. krusei 440009 (clinical isolate); assay: MIC, microtiter plate dilution assay; format: cell-based; conditions: Pichia kudriavzevii, 5 × 10^5 CFU/ml, 37°C, OD600 after 48 h, triplicate
Method: as §1, §2

[9] = test system: C. parasilosis 450030 (clinical isolate); assay: MIC, microtiter plate dilution assay; format: cell-based; conditions: 5 × 10^5 CFU/ml, 37°C, OD600 after 48 h, triplicate
Method: as §1, §2

[10] = test system: C. rugos 470141 (clinical isolate); assay: MIC, microtiter plate dilution assay; format: cell-based; conditions: 5 × 10^5 CFU/ml, 37°C, OD600 after 48 h, triplicate
Method: as §1, §2

[11] = test system: C. tropicalis 420024 (clinical isolate); assay: MIC, microtiter plate dilution assay; format: cell-based; conditions: Candida tropicalis, 5 × 10^5 CFU/ml, 37°C, OD600 after 48 h, triplicate
Method: as §1, §2

[12] = test system: C. tropicalis MTCC 184; assay: MIC, microtiter plate dilution assay; format: cell-based; conditions: Candida tropicalis, MTCC184; 5 × 10^5 CFU/ml, 37°C, OD600 after 48 h, triplicate
Method: as §1, §2

[13] = test system: C. albicans 400054 (clinical isolate); assay: MIC, microtiter plate dilution assay; format: cell-based, Candida albicans; conditions: Candida albicans, 5 × 10^5 CFU/ml, 37°C, OD600 after 48 h, triplicate
Method: as §1, §2

[14] = test system: C. albicans MTCC 1637; assay: MIC, microtiter plate dilution assay; format: cell-based, Candida albicans; conditions: Candida albicans, MTCC1637; 5 × 10^5 CFU/ml, 37°C, OD600 after 48 h, triplicate
Method: as §1, §2

[15] = test system: C. albicans MTCC 183; assay: MIC, microtiter plate dilution assay; format: cell-based, Candida albicans; conditions: Candida albicans, MTCC183; 5 × 10^5 CFU/ml, 37°C, OD600 after 48 h, triplicate
Method: as §1, §2

[16] = test system: C. albicans MTCC 227; assay: MIC, microtiter plate dilution assay; format: cell-based, Candida albicans; conditions: Candida albicans, MTCC227; 5 × 10^5 CFU/ml, 37°C, OD600 after 48 h, triplicate
Method: as §1, §2

[17] = test system: A. brassicicola MTCC 2102; assay: MIC against phytopathogenic fungi, 96-well microtiter plate assay; format: cell-based, Alternaria brassicicola; conditions: Alternaria brassicicola, MTCC2102; 1 × 10^5 spores/ml in PDB, 25°C, OD600 after 48 h, triplicate
Method: (§3) The antimicrobial activity was tested by well diffusion assay as mentioned earlier ([Singh et al., 2014]). Strain A52 was grown for 24 h in 500 ml of nutrient broth (NB, Hi-media, India) using 1000 ml flask and subsequently cells were removed by centrifugation (10,000 rpm for 15 min at 4°C). Supernatant was filtered through 0.22 μm filter (Millipore, United States) to obtain cell-free fermented broth (CFB) that was used for antimicrobial assay (50 μl) against various indicator strains and the activity was measured as diameter of inhibition zone. […]
(§4) The minimum inhibitory concentration (MIC) of HPLC purified peptides was evaluated by using microtiter plate dilution assay. […] OD was measured at 600 nm after 24 and 48 h for bacteria and yeast, respectively, using ELISA microplate reader (Thermo, United States). MIC against phytopathogenic fungi was determined using 96-well microtiter plate assay ([Kaur et al., 2016]). […] The microplates were incubated at 25°C and readings were recorded at 600 nm after 48 h. […]

[18] = test system: F. moniliforme MTCC 158; assay: as above; format: cell-based, Fusarium moniliforme; conditions: Fusarium verticillioides, MTCC158; 1 × 10^5 spores/ml in PDB, 25°C, OD600 after 48 h, triplicate
Method: as §1
as §4, with “assay. The peptide concentration was estimated using BCA protein assay (Thermo Fisher Scientific, United States) method as described by manufacturer.” for “assay.”

[19] = test system: S. anginosus MTCC1929; assay: MIC, microtiter plate dilution assay; format: cell-based; conditions: Streptococcus anginosus, MTCC1929; 5 × 10^5 CFU/ml, 37°C, OD600 after 24 h, triplicate
Method: as §1, §2

[20] = test system: S. mutans MTCC 497; assay: MIC, microtiter plate dilution assay; format: cell-based; conditions: Streptococcus mutans, MTCC497; 5 × 10^5 CFU/ml, 37°C, OD600 after 24 h, triplicate
Method: as §1, §2

[21] = test system: S. oralis MTCC 2696; assay: MIC, microtiter plate dilution assay; format: cell-based; conditions: Streptococcus oralis, MTCC2696; 5 × 10^5 CFU/ml, 37°C, OD600 after 24 h, triplicate
Method: as §1, §2

[22] = test system: S. pyogenes MTCC 1928; assay: MIC, microtiter plate dilution assay; format: cell-based; conditions: Streptococcus pyogenes, MTCC1928; 5 × 10^5 CFU/ml, 37°C, OD600 after 24 h, triplicate
Method: as §1, §2

[23] = test system: S. aureus MTCC 1430; assay: MIC, microtiter plate dilution assay; format: cell-based, Staphylococcus aureus; conditions: Staphylococcus aureus, MTCC1430; 5 × 10^5 CFU/ml, 37°C, OD600 after 24 h, triplicate
Method: as §3, §4

[24] = test system: B. subtilis MTCC 121; assay: MIC, microtiter plate dilution assay; format: cell-based, Bacillus subtilis; conditions: Bacillus subtilis, MTCC121; 5 × 10^5 CFU/ml, 37°C, OD600 after 24 h, triplicate
Method: as §3, §4

[25] = test system: B. cereus MTCC 430; assay: MIC, microtiter plate dilution assay; format: cell-based; conditions: Bacillus cereus, MTCC430; 5 × 10^5 CFU/ml, 37°C, OD600 after 24 h, triplicate
Method: as §2

[26] = test system: B. coagulans MTCC 492; assay: MIC, microtiter plate dilution assay; format: cell-based; conditions: Heyndrickxia coagulans, MTCC492; 5 × 10^5 CFU/ml, 37°C, OD600 after 24 h, triplicate
Method: as §2

[27] = test system: M. luteus MTCC 106; assay: MIC, microtiter plate dilution assay; format: cell-based, Micrococcus luteus; conditions: Micrococcus luteus, MTCC106; 5 × 10^5 CFU/ml, 37°C, OD600 after 24 h, triplicate
Method: as §3, §4

[28] = test system: E. coli MTCC 1610; assay: MIC, microtiter plate dilution assay; format: cell-based, Escherichia coli; conditions: Escherichia coli, MTCC1610; 5 × 10^5 CFU/ml, 37°C, OD600 after 24 h, triplicate
Method: as §3, §4

[29] = test system: skin of BALB/c female mice; assay: Skin irritation study (Draize test); format: in vivo; conditions: topical, about 1 cm^2 hairless dorsal skin, score 0 none, 1 slight, 2 moderate, 3 severe, mean
Method: Skin irritation potential of lipopetide based emulgel formulation was evaluated by carrying out skin irritancy test using 8 weeks old BALB/c female mice ([Draize et al., 1944]). Mice dorsal surface hair was removed without damaging the skin surface about 24 h prior to the experiment. Mice were divided into three groups (n = 3): […] Group II: plain gel (negative control); and Group III: […] emulgel. The formulation was topically applied to the hairless skin area (approximately 1 cm^2) and observations were recorded at 24, 48, and 72 h.

## C[C@@H]1[C@H](O)[C@@H](C)/C=C/C=C/C=C/C=C/C=C/C=C/C=C/[C@H](O[C@@H]2O[C@H](C)[C@@H](O)[C@H](N)[C@@H]2O)C[C@@H]2O[C@](O)(C[C@@H](O)C[C@@H](O)[C@H](O)CC[C@@H](O)C[C@@H](O)CC(=O)O[C@H]1C)C[C@H](O)[C@H]2C(=O)O [Amphotericin B, reference compound]
[1]
  MIC: 5 µg/mL (≈ 5.41 µM)
[2]
  MIC: 25 µg/mL (≈ 27.1 µM)
[3]
  MIC: 100 µg/mL (≈ 108 µM)
[4]
  MIC: 50 µg/mL (≈ 54.1 µM)
[5]
  MIC: 100 µg/mL (≈ 108 µM)
[6]
  MIC: 10 µg/mL (≈ 10.8 µM)
[7]
  MIC: 50 µg/mL (≈ 54.1 µM)
[8]
  MIC: 5 µg/mL (≈ 5.41 µM)
[9]
  MIC: 50 µg/mL (≈ 54.1 µM)
[10]
  MIC: 5 µg/mL (≈ 5.41 µM)
[11]
  MIC: 50 µg/mL (≈ 54.1 µM)
[12]
  MIC: 35 µg/mL (≈ 37.9 µM)
[13]
  MIC: 5 µg/mL (≈ 5.41 µM)
[14]
  MIC: 5 µg/mL (≈ 5.41 µM)
[15]
  MIC: 5 µg/mL (≈ 5.41 µM)
[16]
  MIC: 5 µg/mL (≈ 5.41 µM)
[17]
  MIC: 50 µg/mL (≈ 54.1 µM)
[18]
  MIC: 50 µg/mL (≈ 54.1 µM)

## OC(Cn1cncn1)(Cn1cncn1)c1ccc(F)cc1F [Fluconazole]
[6]
  MIC: 50 µg/mL (≈ 163 µM)
[8]
  MIC: 1 µg/mL (≈ 3.27 µM)
[9]
  MIC: 10 µg/mL (≈ 32.7 µM)
[10]
  MIC: 5 µg/mL (≈ 16.3 µM)
[15]
  MIC: 20 µg/mL (≈ 65.3 µM)
[18]
  MIC: 10 µg/mL (≈ 32.7 µM)

## CC1(C)S[C@@H]2[C@H](NC(=O)[C@H](N)c3ccccc3)C(=O)N2[C@H]1C(=O)O [Ampicillin, reference compound]
[19]
  MIC: 0.25 µg/mL (≈ 0.715 µM)
[20]
  MIC: 0.4 µg/mL (≈ 1.14 µM)
[21]
  MIC: 0.4 µg/mL (≈ 1.14 µM)
[22]
  MIC: 0.03 µg/mL (≈ 0.0859 µM)
[23]
  MIC: 0.25 µg/mL (≈ 0.715 µM)
[24]
  MIC: 0.5 µg/mL (≈ 1.43 µM)
[25]
  MIC: 0.5 µg/mL (≈ 1.43 µM)
[26]
  MIC: 0.5 µg/mL (≈ 1.43 µM)
[27]
  MIC: 0.2 µg/mL (≈ 0.572 µM)
[28]
  MIC: 1 µg/mL (≈ 2.86 µM)

## CCCCCCCCCCCCOS(=O)(=O)[O-].[Na+] [Positive Control, sodium lauryl sulfate]
[29]
  Erythema score (n=3), 0 h: 0
  Erythema score (n=3), 24h: 3
  Erythema score (n=3), 48h: 3
  Erythema score (n=3), 72h: 3
